Test results reported in patent US20050159345A1 (Boehringer Ingelheim International GmbH, priority 2002, published 2005).

Legend:
[1] = target: T1, HCV 3a NS3-NS4A heterodimer protein (UniProt Q81258); assay: In vitro HCV NS3 protease assay (fluorogenic depsipeptide), genotype 3a; assay type: biochemical, HCV genotype 3a; conditions: read-out: IC50 HCV-3a; HCV 3a NS3-NS4A protease
T1 construct: fused on or other part: 28 extra N-terminal residues with a hexahistidine tag and an rTEV cleavage site
T1 sequence (Q81258 1033-1663): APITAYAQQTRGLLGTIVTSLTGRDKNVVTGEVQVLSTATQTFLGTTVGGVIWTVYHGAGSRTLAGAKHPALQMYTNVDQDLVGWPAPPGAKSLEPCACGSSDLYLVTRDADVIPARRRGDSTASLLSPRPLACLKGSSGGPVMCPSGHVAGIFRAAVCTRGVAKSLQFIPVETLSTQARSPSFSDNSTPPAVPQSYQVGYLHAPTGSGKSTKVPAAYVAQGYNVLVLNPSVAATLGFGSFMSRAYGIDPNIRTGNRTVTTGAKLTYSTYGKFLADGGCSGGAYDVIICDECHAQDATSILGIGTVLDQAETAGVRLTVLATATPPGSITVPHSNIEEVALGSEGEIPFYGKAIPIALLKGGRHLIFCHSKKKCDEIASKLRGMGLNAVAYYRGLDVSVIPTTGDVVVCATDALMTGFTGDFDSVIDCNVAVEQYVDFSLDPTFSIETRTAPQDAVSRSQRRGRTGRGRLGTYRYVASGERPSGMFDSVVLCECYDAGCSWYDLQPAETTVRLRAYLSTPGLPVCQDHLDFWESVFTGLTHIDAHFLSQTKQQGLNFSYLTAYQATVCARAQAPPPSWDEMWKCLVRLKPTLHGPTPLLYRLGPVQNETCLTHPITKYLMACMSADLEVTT
Text: The NS3-NS4 protease genes of HCV genotypes 2b and 3a were amplified from RNA isolated from clinical samples of HCV-infected patients obtained from Dr. G. Steinmann (Germany) using RT-PCR. The primers used for the RT-PCR were 5′[…]3′ (SEQ ID No. 6) as the forward and 5′[…]3′ (SEQ ID No.7) as the reverse primer for the NS3-NS4A of HCV genotype 2b and; 5′[…]3′ (SEQ ID No. 8) as the forward and 5′[…]3′ (SEQ ID No. 9) as the reverse primer for HCV genotype 3a. Each primer contained a unique restriction site for subcloning the fragment in the bacterial expression vector pET11a. The cloning into the vector generated a recombinant fusion protein containing an additional N-terminal 28 residues that comprised a hexahistidine tag and a rTEV protease cleavage site. The recombinant plasmids were used to transform the bacterial strain BL21 DE3 pLysS for protein expression and recombinant protein expression was induced by the addition of IPTG. Following expression, the cells were collected by centrifugation at 4° C. and the cell pellet lysed in a buffer containing 50 mM sodium phosphate, 0.5M NaCl, 40% glycerol, 1.5% NP-40, 0.5% Triton X-100 and the soluble protein fraction was passed through a 5ml HiTrap chelating affinity column as described above. A poly(U)-Sepharose purification step can optionally be conducted in order to remove degradation products and contaminants. […]
(§1) The fluorescence was monitored using the BMG POLARstar Galaxy 96-well plate reader with an excitation filter of 320 nm, and an emission filter of 405 nm. The level of inhibition (% inhibition) of each well containing test compound was calculated with the following equation (FU=fluorescence unit): [formula]
The calculated % inhibition values were then used to determine IC50, slope factor (n) and maximum inhibition (Imax) by the non-linear regression routine NLIN procedure of SAS using the following equation: [formula] […]

[2] = target: T2, HCV 2a-c NS3-NS4A heterodimer protein (UniProt P26660); assay: In vitro HCV NS3 protease assay (fluorogenic depsipeptide), genotype 2a-c; assay type: biochemical, HCV genotype 2a-c; conditions: read-out: IC50 HCV-2a-c; HCV 2a-c NS3-NS4A protease
T2 sequence (P26660 1031-1661): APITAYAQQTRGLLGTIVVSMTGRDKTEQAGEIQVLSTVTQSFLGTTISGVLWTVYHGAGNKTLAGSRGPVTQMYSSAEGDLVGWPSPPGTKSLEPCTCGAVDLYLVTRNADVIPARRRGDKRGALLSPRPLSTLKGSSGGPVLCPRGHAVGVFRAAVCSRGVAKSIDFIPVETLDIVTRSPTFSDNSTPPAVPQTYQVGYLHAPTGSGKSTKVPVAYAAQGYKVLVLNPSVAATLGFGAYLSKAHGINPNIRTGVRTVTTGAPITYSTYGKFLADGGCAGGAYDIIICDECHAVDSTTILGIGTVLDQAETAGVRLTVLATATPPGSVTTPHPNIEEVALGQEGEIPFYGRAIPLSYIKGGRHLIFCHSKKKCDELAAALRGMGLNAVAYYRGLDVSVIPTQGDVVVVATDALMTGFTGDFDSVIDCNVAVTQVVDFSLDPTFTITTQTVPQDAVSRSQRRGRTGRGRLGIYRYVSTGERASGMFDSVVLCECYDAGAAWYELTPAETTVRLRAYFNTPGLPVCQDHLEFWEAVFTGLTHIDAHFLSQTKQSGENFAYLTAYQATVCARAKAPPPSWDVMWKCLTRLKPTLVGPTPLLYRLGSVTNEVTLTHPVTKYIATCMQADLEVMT
Description: The fluorogenic depsipeptide substrate used to assess inhibition of protease activity of the HCV 1a, 1b, 2b, 2a-c and 3a NS3-NS4A heterodimer protein was anthranilyl-DDIVPAbu[C(O)—O]-AMY(3-NO2)TW—OH (SEQ ID No.10). This substrate is cleaved between the aminobutyric (Abu) and the alanine residues. The sequence DDIVPAbu-AMYTW (SEQ ID No.11) is derived from the sequence DDIVPC—SMSYTW (SEQ ID No.12) corresponding to the NS5A/NS5B natural cleavage site. […] The protease activity was assayed in 50 mM Tris-HCl, pH 8.0, 0.25M sodium citrate, 0.01% n-dodecyl-β-D-maltoside, 1 mM TCEP. The assay was performed in a Microfluor®2 White U-Bottom Microtiter® plate. 5 μM of the substrate and various concentrations of the test compound were incubated with 1.5 nM of HCV 1a or 1b NS3-NS4A heterodimer protein for 45 minutes at 23° C. under gentle agitation. […] The reaction was terminated by the addition of a 1M 2-[N-morpholino]ethanesulfonic acid solution at pH 5.8.
as §1
The calculated % inhibition values were then used to determine IC50, slope factor (n) and maximum inhibition (Imax) by the non-linear regression routine NLIN procedure of SAS using the following equation: [formula] Inhibition Constant (Ki) Determination and mode of Inhibition

[3] = target: T3, HCV 1b NS3-NS4A heterodimer protein (UniProt P26662); assay: In vitro HCV NS3 protease assay (fluorogenic depsipeptide), genotype 1b; assay type: biochemical, HCV genotype 1b; conditions: read-out: IC50 HCV-1b; HCV 1b NS3-NS4A protease
T3 construct: fused on or other part: 28 extra N-terminal residues with a hexahistidine tag and an rTEV cleavage site
T3 sequence (P26662 1027-1657, one chain of several): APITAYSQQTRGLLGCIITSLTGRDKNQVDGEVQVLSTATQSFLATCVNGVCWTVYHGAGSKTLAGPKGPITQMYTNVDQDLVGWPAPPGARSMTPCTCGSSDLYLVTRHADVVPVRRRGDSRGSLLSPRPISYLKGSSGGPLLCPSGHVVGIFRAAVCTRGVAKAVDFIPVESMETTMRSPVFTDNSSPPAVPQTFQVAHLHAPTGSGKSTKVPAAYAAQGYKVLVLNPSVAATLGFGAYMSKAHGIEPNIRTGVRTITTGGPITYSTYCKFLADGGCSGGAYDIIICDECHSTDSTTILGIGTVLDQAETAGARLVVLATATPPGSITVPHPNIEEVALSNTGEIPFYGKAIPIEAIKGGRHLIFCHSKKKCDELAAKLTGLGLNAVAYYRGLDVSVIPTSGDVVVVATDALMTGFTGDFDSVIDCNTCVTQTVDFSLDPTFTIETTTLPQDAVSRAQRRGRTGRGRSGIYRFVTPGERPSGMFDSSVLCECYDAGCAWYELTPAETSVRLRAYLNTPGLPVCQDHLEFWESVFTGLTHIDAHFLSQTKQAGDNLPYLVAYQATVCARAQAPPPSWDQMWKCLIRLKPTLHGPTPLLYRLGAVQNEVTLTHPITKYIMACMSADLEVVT
Description: For production of the HCV genotype 1b NS3-NS4A heterodimer protein, a full-length HCV cDNA was cloned by RT-PCR using RNA extracted from the serum of an HCV genotype 1b infected individual (provided by Dr. Bernard Willems, Hôpital St-Luc, Montréal, Canada). […] For HCV genotype 1a, the DNA encoding NS3-NS4A heterodimer protein was PCR-amplified (forward primer: 5′[sequence]3′ (SEQ ID No.3); reverse primer: 5′[sequence]3′ (SEQ ID No.4)) from the HCV genotype la strain H77 (provided by ViroPharma Inc., Exton, Pa., U.S.) and subcloned as described above. The cloning into the pFastBac™ HTa baculovirus expression vector generated a recombinant fusion protein containing an additional N-terminal 28 residues that comprised a hexahistidine tag and a rTEV protease cleavage site. The Bac-to-Bac™ baculovirus expression system (Gibco/BRL) was used to produce the recombinant baculovirus for protein expression.
His-tagged NS3-NS4A heterodimer protease was expressed by infecting Sf21 insect cells (Invitrogen) at a density of 10^6 cells/mL with the recombinant baculovirus at a multiplicity of infection of 0.1-0.2 at 27° C. The infected culture was harvested 48 to 64 h later by centrifugation at 4° C. The cell pellet was homogenized in 50 mM sodium phosphate, pH 7.5, 40% glycerol (w/v), 2 mM β-mercaptoethanol. His-NS3-NS4A heterodimer protease was then extracted from the cell lysate with 1.5% NP-40, 0.5% Triton X-100, 0.5M NaCl, and a DNase treatment. […]

SMILES	IC50 [1] [nM]	IC50 [2] [nM]	IC50 [3] [nM]
COc1ccc2c(O[C@@H]3C[C@H]4C(=O)N[C@]5(C(=O)O)CC5/C=C\CCCCC[C@H](NC(=O)OC(C)(C)C)C(=O)N4C3)cc(-c3csc(NC(C)=O)n3)nc2c1 (stereo partly drawn) [III]	190	490	4.2
COc1ccc2c(O[C@@H]3C[C@H]4C(=O)N[C@]5(C(=O)O)CC5/C=C\CCCCC[C@H](NC(=O)OC(C)(C)C)C(=O)N4C3)cc(-c3ccccc3)nc2c1 (stereo partly drawn) [II]	360	680	8.9
COc1ccc2c(O[C@@H]3C[C@H]4C(=O)N[C@]5(C(=O)O)CC5/C=C\CCCCC[C@H](NC(=O)OC5CCCC5)C(=O)N4C3)cc(-c3csc(NC(C)C)n3)nc2c1 (stereo partly drawn) [IV]	280	200	3.4
